In PubChem BioAssay AID720632 (Broad Institute, 2013):
Active and inactive are the calls of the source. No rule for the calls is given here.

Molecular target: Caspase-6 (Homo sapiens) (UniProt P55212)
Assay: inhibition of CASP6 peptide cleavage – biochemical, VEID-R110 fluorescence, cherry-pick, dose response (AID 720632)
Conditions: caspase-6, VEID-R110 fluorogenic substrate

Chain of Caspase-6 (Homo sapiens) (P55212 24-179 limits assumed): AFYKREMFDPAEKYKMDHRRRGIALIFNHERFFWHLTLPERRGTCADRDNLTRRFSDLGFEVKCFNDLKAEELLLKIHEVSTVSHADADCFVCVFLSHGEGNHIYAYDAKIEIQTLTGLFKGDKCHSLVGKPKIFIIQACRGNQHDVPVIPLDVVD
Chain of Caspase-6 (Homo sapiens) (P55212 194-293 limits assumed): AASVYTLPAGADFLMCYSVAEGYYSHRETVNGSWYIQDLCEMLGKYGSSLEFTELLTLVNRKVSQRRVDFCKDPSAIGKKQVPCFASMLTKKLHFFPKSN

Row | SMILES | activity change, negative = inhibition (at 26 µM (top of the series)) | activity change, negative = inhibition (at 8 µM (top of the series))
1 | CSCCC(NC(=O)COc1ccccc1)C(=O)N(C)CC(=O)Nc1c(C)cccc1C (stereo not given) | inactive | –
2 | CC(=O)c1ccc(S(=O)(=O)N2CCN(C(=O)c3ccc(-n4cncn4)c([N+](=O)[O-])c3)CC2)cc1 | inactive | –
3 | CC(C)CNC(=O)C1(C)CCCCCN1C(=O)c1cccnc1 (stereo not given) | inactive | –
4 | CN(C)CCCN(C(=O)c1ccc([N+](=O)[O-])s1)c1nc2cc3c(cc2s1)OCCO3 | – | inactive
5 | CCCCCn1nnnc1-c1nc2cc(C)c(C)cc2[nH]c1=O | inactive | –
6 | Cc1ccc(NC(=O)Nc2nnc(-c3ccccc3)o2)cc1 | inactive | –
7 | CCOc1ccc(-c2n[nH]c(=S)n2Cc2ccccc2)cc1 | inactive | –
8 | O=C(CNc1cccc(S(=O)(=O)N2CCCC2)c1)Nc1cccc(Br)c1 | inactive | –
9 | O=C(NC1CCCCC1)C(c1ccnc2ccccc12)N1CCc2ccccc2C1 (stereo not given) | inactive | –
10 | CCN(CC)c1nc(N)c2c(N)nc(OC)cc2c1C#N | inactive | –
11 | COc1ccccc1N(Cc1ccccc1)S(=O)(=O)c1cccc(C(=O)Nc2ccccn2)c1 | inactive | –
12 | CC(C)(O)c1cn([C@@H]2C[C@@H]3O[C@@H](CO)CC[C@@H]3O[C@@H]2CCc2ccc(-c3ccncc3)cc2)nn1 | inactive | –
13 | CN1c2ccccc2Sc2cc(N)ccc21 | inactive | –
14 | CC(C)(C)NC(=O)C(=O)NN=C1CCCCCCCCCCC1 | inactive | –
15 | OCc1ccccc1-c1nc(NCc2ccccc2)nc2ccsc12 | inactive | –
16 | Oc1cc(Nc2cccnc2)cc2cccnc12 | inactive | –
17 | O=C(Cc1ccc([N+](=O)[O-])cc1)c1c(O)cc(O)cc1O | inactive | –
18 | Nc1cccnc1Oc1ccc(F)cc1 | inactive | –
19 | CCOCCCNC(=O)C1c2ccccc2Oc2ccccc21 | inactive | –
20 | O=c1[nH]c2ccc(F)cc2[nH]c1=O | inactive | –
21 | Nc1ccc(C(=O)N/N=C/c2cn(Cc3ccc(F)cc3)c3ccccc23)cc1 | inactive | –
22 | COCCNc1nc(-c2ccc(OC)cc2)c(-c2ccc(OC)cc2)s1 | inactive | –
23 | O=C(CNC(=O)Cc1ccccc1)NCc1cccs1 | inactive | –
24 | CN(C(=O)c1ccc(Cl)cc1)c1ccc(OCC(=O)Nc2cc(C(=O)O)ccc2Cl)cc1 | inactive | –
25 | O=C(C[C@H]1C=C[C@H](NC(=O)c2ccccc2)[C@H](CO)O1)NCCc1ccncc1 | inactive | –
26 | O=C(Nc1ccccc1)c1ccccc1OCc1cccc([N+](=O)[O-])c1 | inactive | –

Row | SMILES | activity change, negative = inhibition (at 26 µM (top of the series)) | activity change, negative = inhibition (at 8 µM (top of the series))
27 | O=[N+]([O-])c1ccc2nc(-c3ccccc3[N+](=O)[O-])[nH]c2c1 | inactive | –
28 | O=C1CC(NS(=O)(=O)c2cc(F)ccc2F)CN1c1cccc(F)c1 (stereo not given) | inactive | –
29 | COc1ccc(CCNC(=O)c2c(C)noc2C)cc1 | inactive | –
30 | Cn1cc(C(CC(=O)O)C(=O)O)c2ccccc21 (stereo not given) | inactive | –
31 | Cc1ccc(NS(=O)(=O)c2ccc(Br)s2)nc1 | inactive | –
32 | COc1ccc(OC)c(N(CC(=O)Nc2ccccc2)S(C)(=O)=O)c1 | inactive | –
33 | N#CC1C(=O)Nc2cccnc21 (stereo not given) | inactive | –
34 | O=C(CCCCCn1c(=S)[nH]c2cc3c(cc2c1=O)OCO3)N1CCN(c2ccc(F)cc2)CC1 | inactive | –
35 | O=C(O)c1cc([N+](=O)[O-])cc([N+](=O)[O-])c1N1CCN(c2cccc(C(F)(F)F)c2)CC1 | inactive | –
36 | CCC(C)Nc1nc2c(C)cccn2c(=O)c1C=Nc1ccc(OC)cc1 (stereo not given) | inactive | –
37 | COc1ccc(NC(=O)Nc2ccccc2F)c([N+](=O)[O-])c1 | inactive | –
38 | COc1cc(CNC(C)c2ccccc2)c(Br)cc1OCC(N)=O (stereo not given) | inactive | –
39 | COc1ccc(/C(C)=N/N2CCCCC2)c(O)c1 | inactive | –
40 | O=C(CCOc1ccccc1)N1CCN(S(=O)(=O)c2ccccc2F)CC1 | inactive | –
41 | O=C(N/N=C/c1ccc[nH]1)c1ccccc1O | inactive | –
42 | CCOc1ccc(S(=O)(=O)NCCC(=O)NCC2(N3CCCCC3)CCCCC2)cc1 | inactive | –
43 | O=C1CC(N2CCSCC2)C(=O)N1c1cccc(Cl)c1 (stereo not given) | inactive | –
44 | O=C(NC1CC1)c1c(O)c2ccccc2[nH]c1=O | inactive | –
45 | O=C(Cc1ccccn1)NCC[C@@H]1CC[C@@H](NC(=O)c2ccccc2F)[C@H](CO)O1 | inactive | –
46 | Oc1ccc(/C=N/Nc2ccnc3cc(Cl)ccc23)c(O)c1 | inactive | –
47 | O=C1NC2=C(C(=O)CCC2)C(c2cccc([N+](=O)[O-])c2)N1 (stereo not given) | inactive | –
48 | CC(C)CNC(=O)C1(C)CCCN1C(=O)Cc1cccc2ccccc12 (stereo not given) | inactive | –
49 | C#CCOc1ccc(CNC[C@H]2O[C@@H](n3ccc(N)nc3=O)[C@H](O)[C@@H]2O)cc1 | inactive | –
50 | Clc1cccc(-c2nn3c(Cn4cnc5ccccc54)nnc3s2)c1 | inactive | –
51 | COc1ccc2oc(C(=O)N3CCN(c4ncccn4)CC3)c(C)c2c1 | inactive | –

Next, values leading:

Row | activity change, negative = inhibition (at 26 µM (top of the series)) | activity change, negative = inhibition (at 8 µM (top of the series)) | SMILES
52 | inactive | – | CO[C@H]1CN(C)C(=O)c2ccc(NC(C)=O)cc2OC[C@H](C)N(C(=O)CC2CC2)C[C@H]1C
53 | inactive | – | CCCC(=O)Nc1ccc2c(c1)OC[C@H](C)NC[C@H](C)[C@H](OC)CN(C)C2=O
54 | inactive | – | Cc1cccc(N2CCN(C(=O)CCCn3c(=S)[nH]c4cc5c(cc4c3=O)OCO5)CC2)c1C
55 | inactive | – | Cc1ccc(C)c(N2N=C(C(=O)OCc3nnc(-c4ccccc4Br)o3)CCC2=O)c1
56 | inactive | – | CO[C@H]1CN(C)C(=O)c2ccc(NC(=O)C3CC3)cc2OC[C@@H](C)N(Cc2ccccc2)C[C@H]1C
57 | inactive | – | COc1ccc(N2CCN(C(=O)CCCn3c(=S)[nH]c4cc5c(cc4c3=O)OCO5)CC2)cc1
58 | inactive | – | O=C(COc1ccc(S(=O)(=O)NC2CCCCC2)cc1Cl)NCc1ccc2c(c1)OCO2
59 | inactive | – | CCC(=O)Nc1ccc2c(c1)OC[C@H](C)N(C(=O)CC)C[C@@H](C)[C@@H](OC)CN(C)C2=O
60 | inactive | – | CCC(=O)N1CCC1(C)C(=O)Nc1ccc2c(c1)CCN2C(C)=O (stereo not given)
61 | inactive | – | Cc1cc(N2CCCC2)ccc1NC(=O)CN1C(=O)NC2(CCCCC2)C1=O
62 | inactive | – | CO[C@@H]1CN(C)C(=O)c2ccc(NC(=O)c3ccccc3)cc2OC[C@H](C)N(C(=O)C2CC2)C[C@@H]1C
63 | inactive | – | COCC(=O)Nc1ccc2c(c1)OC[C@@H](C)N(CC1CC1)C[C@@H](C)[C@@H](OC)CN(C)C2=O
64 | inactive | – | O=C(Nc1ccc2c(c1)OCO2)C1Cc2c(-c3ccc4c(c3)OCO4)ccnc2O1 (stereo not given)
65 | inactive | – | CCC(=O)Nc1ccc2c(c1)OC[C@@H](C)NC[C@@H](C)[C@@H](OC)CN(C)C2=O
66 | inactive | – | CO[C@H]1CN(C)C(=O)c2ccc(NC(=O)C3CC3)cc2OC[C@@H](C)N(CC2CCOCC2)C[C@@H]1C
67 | inactive | – | O=C(CC1C(=O)NCCN1Cc1cccc(F)c1F)NCCCC1CCCC1 (stereo not given)
68 | inactive | – | O=C(CCCn1c(=S)[nH]c2cc3c(cc2c1=O)OCO3)N1CCN(c2ccccc2F)CC1

Row | activity change, negative = inhibition (at 26 µM (top of the series)) | activity change, negative = inhibition (at 8 µM (top of the series)) | SMILES
69 | inactive | – | COc1ccc(NS(=O)(=O)c2cc(NC(=O)[C@H](C)NC(N)=O)ccc2N2CCCC2)cc1
70 | inactive | – | CC1CCCC(C)N1C(=O)C1CCCCC1 (stereo not given)
71 | inactive | – | COCC(=O)Nc1ccc2c(c1)OC[C@@H](C)N(CC1CC1)C[C@@H](C)[C@H](OC)CN(C)C2=O
72 | inactive | – | O=C(c1nc2ccccn2c1CN1CCCC(c2nc3ccccc3o2)C1)N1CCCC1 (stereo not given)
73 | inactive | – | CCC(CC)COC(=O)C1=C(C)NC(=O)NC1c1cc(OC)ccc1OC (stereo not given)
74 | inactive | – | O=C(NCC1COc2ccccc2O1)c1ccc(F)c(S(=O)(=O)N2CCOCC2)c1 (stereo not given)
75 | inactive | – | CCC(=O)Nc1ccc2c(c1)OC[C@H](C)N(C(=O)CC)C[C@@H](C)[C@H](OC)CN(C)C2=O
76 | inactive | – | COc1ccc(/C=N/NC(=O)c2ccccc2O)cc1CN1CCOCC1
77 | inactive | – | CN1CCN(CC(=O)Nc2ccc(Cl)cc2Cl)CC1
78 | inactive | – | CCOc1ccc(N2CC(C(=O)NCC(=O)Nc3ccc(F)c(F)c3F)CC2=O)cc1 (stereo not given)
79 | inactive | – | COCC(=O)Nc1ccc2c(c1)OC[C@H](C)N(CC1CC1)C[C@H](C)[C@H](OC)CN(C)C2=O
80 | inactive | – | Cc1ccc(NC(=O)C(c2ccccc2)N2CCN(CC(=O)N3CCOCC3)CC2)cc1Cl (stereo not given)
81 | inactive | – | COc1ccccc1C(=O)Nc1ccc2c(c1)OC[C@H](C)N(CC1CC1)C[C@@H](C)[C@@H](OC)CN(C)C2=O
82 | inactive | – | CC(C)c1ccc(C(=O)N2CCCC(c3cc(C(=O)Nc4ccccc4Cl)no3)C2)cc1 (stereo not given)
83 | inactive | – | CCC(=O)Nc1ccc2c(c1)OC[C@@H](C)N(C(=O)CC)C[C@H](C)[C@H](OC)CN(C)C2=O
84 | inactive | – | O=C(CCCCCn1c(=S)[nH]c2cc3c(cc2c1=O)OCO3)N1CCN(C2CCCCC2)CC1
85 | inactive | – | CO[C@H]1CN(C)C(=O)c2ccc(NC(=O)C3CC3)cc2OC[C@H](C)N(Cc2ccccc2)C[C@H]1C
